Measured values reported in patent publication US20260159536A1, “AKR1C3-ACTIVATED DNA ALKYLATING AGENT, AND MEDICAL APPLICATION THEREOF” (ASCENTAWITS PHARMACEUTICALS, LTD., priority 2021, published 2026).

Assay: in vitro
Settings: for % Remaining: with NADPH and AST-3021
Protocol: (1) Compound A for test, progesterone positive control, and 100 mM stock solutions of AST-3021 inhibitor were prepared and stored in the freezer (−10° C. to −30° C.).
1) Negative control group: at different time points (0 and 60 min), 30 μL/well of hepatocyte cytosol suspension containing 7.5 μM of sample for test was distributed in a 96-well plate. Three replicate wells were prepared in parallel.
2) Positive control group: at different time points (0, 5, 15, 30, 45 and 60 min), 30 μL/well of hepatocyte cytosol suspension containing 7.5 μM of the positive control was distributed in a 96-well plate. Three replicate wells were prepared in parallel.
3) Normal reaction group: at different time points (0, 5, 15, 30, 45 and 60 min), 30 μL/well of hepatocyte cytosol suspension containing 7.5 μM of sample for test was distributed in a 96-well plate. Three replicate wells were prepared in parallel.
4) Inhibition reaction group: at different time points (0, 5, 15, 30, 45 and 60 min), 30 μL/well of hepatocyte cytosol suspension containing […] of sample for test and 4.5 μM of the inhibitor was distributed in a 96-well plate. Three replicate wells were prepared in parallel.
6) 0 min samples: after 150 μL/well of acetonitrile containing the internal standard was added, then 15 μL/well of pre-heated NADPH working solution was added to the samples of normal reaction group, inhibition reaction group and positive control group, and 15 μL/well of pre-heated potassium phosphate buffer was added to the samples of negative control group.
7) Other samples (5, 15, 30, 45 and 60 min): for normal reaction group, inhibition reaction group and positive control group, 15 μL/well of pre-heated NADPH working solution was added to start the reaction; for negative control group, 15 μL/well of pre-heated potassium phosphate buffer was added. The reaction plates were then continued to incubate in a 37° C. water bath and the reactions were stopped by the addition of 150 μL/well of stop solution at the corresponding time points (5, 15, 30, 45 and 60 min).
The concentration of analyte in each sample was expressed as a peak area ratio (peak area analyte/peak areainternal standard), then the peak area ratio at 0 min was used as a reference to calculate the % Remaining at each time point of the incubation, and the ln logarithmic value of the % Remaining was linearly fitted to the incubation time and the half-life was calculated according to the following formula.
In the absence of AST-3021, 5 μM of progesterone was co-incubated with 2 mM of NADPH and 1 mg/mL of hepatocyte cytosol for 0-60 min as a positive control.

O=[N+]([O-])c1ccc(C(OP(=O)(N2CC2)N2CC2)C(F)(F)F)cc1Oc1ccc(-c2ccc(F)cc2)c(F)c1 (racemic) [Compound A]
Metabolic parameter k (monkey, 2 mM NADPH, no AST-3021 (normal reaction / positive control group), 5 μM): 0.0046
average % Remaining (monkey, 2 mM NADPH, no AST-3021 (normal reaction / positive control group), 5 μM, 0 min): 100.00%
average % Remaining (monkey, 2 mM NADPH, no AST-3021 (normal reaction / positive control group), 5 μM, 5 min): 98.89%
average % Remaining (monkey, 2 mM NADPH, no AST-3021 (normal reaction / positive control group), 5 μM, 15 min): 94.52%
average % Remaining (monkey, 2 mM NADPH, no AST-3021 (normal reaction / positive control group), 5 μM, 30 min): 89.81%
average % Remaining (monkey, 2 mM NADPH, no AST-3021 (normal reaction / positive control group), 5 μM, 45 min): 83.43%
average % Remaining (monkey, 2 mM NADPH, no AST-3021 (normal reaction / positive control group), 5 μM, 60 min): 73.28%
Metabolic parameter k (monkey, negative control group (no NADPH, no AST-3021), 5 μM): 0.0040
average % Remaining (monkey, negative control group (no NADPH, no AST-3021), 5 μM, 0 min): 100.00%
average % Remaining (monkey, negative control group (no NADPH, no AST-3021), 5 μM, 60 min): 78.57%
average % Remaining (mouse, 60 min, no NADPH, no AST-3021): 83.01%
average % Remaining (mouse, 60 min, with NADPH, no AST-3021): 88.89%
% Remaining (mouse): 74.94%
Metabolic parameter k (mouse, 2 mM NADPH + 3 μM AST-3021 (inhibition reaction group), 5 μM): 0.0041
average % Remaining (mouse, 2 mM NADPH + 3 μM AST-3021 (inhibition reaction group), 5 μM, 0 min): 100.00%
average % Remaining (mouse, 2 mM NADPH + 3 μM AST-3021 (inhibition reaction group), 5 μM, 5 min): 90.76%
average % Remaining (mouse, 2 mM NADPH + 3 μM AST-3021 (inhibition reaction group), 5 μM, 15 min): 87.29%
average % Remaining (mouse, 2 mM NADPH + 3 μM AST-3021 (inhibition reaction group), 5 μM, 30 min): 85.00%
average % Remaining (mouse, 2 mM NADPH + 3 μM AST-3021 (inhibition reaction group), 5 μM, 45 min): 82.33%
average % Remaining (mouse, 2 mM NADPH + 3 μM AST-3021 (inhibition reaction group), 5 μM, 60 min): 74.94%
Metabolic parameter k (mouse, 2 mM NADPH, no AST-3021 (normal reaction / positive control group), 5 μM): 0.0014
average % Remaining (mouse, 2 mM NADPH, no AST-3021 (normal reaction / positive control group), 5 μM, 0 min): 100.00%
average % Remaining (mouse, 2 mM NADPH, no AST-3021 (normal reaction / positive control group), 5 μM, 5 min): 99.18%
average % Remaining (mouse, 2 mM NADPH, no AST-3021 (normal reaction / positive control group), 5 μM, 15 min): 109.17%
average % Remaining (mouse, 2 mM NADPH, no AST-3021 (normal reaction / positive control group), 5 μM, 30 min): 95.86%
average % Remaining (mouse, 2 mM NADPH, no AST-3021 (normal reaction / positive control group), 5 μM, 45 min): 95.38%
average % Remaining (mouse, 2 mM NADPH, no AST-3021 (normal reaction / positive control group), 5 μM, 60 min): 88.89%
Metabolic parameter k (mouse, negative control group (no NADPH, no AST-3021), 5 μM): 0.0031
average % Remaining (mouse, negative control group (no NADPH, no AST-3021), 5 μM, 0 min): 100.00%
average % Remaining (mouse, negative control group (no NADPH, no AST-3021), 5 μM, 60 min): 83.01%
average % Remaining (rat, 60 min, no NADPH, no AST-3021): 68.42%
average % Remaining (rat, 60 min, with NADPH, no AST-3021): 71.72%
% Remaining (rat): 63.81%
Metabolic parameter k (rat, 2 mM NADPH + 3 μM AST-3021 (inhibition reaction group), 5 μM): 0.0068
average % Remaining (rat, 2 mM NADPH + 3 μM AST-3021 (inhibition reaction group), 5 μM, 0 min): 100.00%
average % Remaining (rat, 2 mM NADPH + 3 μM AST-3021 (inhibition reaction group), 5 μM, 5 min): 88.10%
average % Remaining (rat, 2 mM NADPH + 3 μM AST-3021 (inhibition reaction group), 5 μM, 15 min): 86.23%
average % Remaining (rat, 2 mM NADPH + 3 μM AST-3021 (inhibition reaction group), 5 μM, 30 min): 83.84%
average % Remaining (rat, 2 mM NADPH + 3 μM AST-3021 (inhibition reaction group), 5 μM, 45 min): 78.06%
average % Remaining (rat, 2 mM NADPH + 3 μM AST-3021 (inhibition reaction group), 5 μM, 60 min): 63.81%
Metabolic parameter k (rat, 2 mM NADPH, no AST-3021 (normal reaction / positive control group), 5 μM): 0.0053
average % Remaining (rat, 2 mM NADPH, no AST-3021 (normal reaction / positive control group), 5 μM, 0 min): 100.00%
average % Remaining (rat, 2 mM NADPH, no AST-3021 (normal reaction / positive control group), 5 μM, 5 min): 90.07%
average % Remaining (rat, 2 mM NADPH, no AST-3021 (normal reaction / positive control group), 5 μM, 15 min): 90.26%
average % Remaining (rat, 2 mM NADPH, no AST-3021 (normal reaction / positive control group), 5 μM, 30 min): 84.80%
average % Remaining (rat, 2 mM NADPH, no AST-3021 (normal reaction / positive control group), 5 μM, 45 min): 81.99%
average % Remaining (rat, 2 mM NADPH, no AST-3021 (normal reaction / positive control group), 5 μM, 60 min): 71.72%
Metabolic parameter k (rat, negative control group (no NADPH, no AST-3021), 5 μM): 0.0063
average % Remaining (rat, negative control group (no NADPH, no AST-3021), 5 μM, 0 min): 100.00%
average % Remaining (rat, negative control group (no NADPH, no AST-3021), 5 μM, 60 min): 68.42%
